Assays:
Details in all cases: 72 h
SK-BR-3 = test system: SK-BR-3
Summary of the method: (§1)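 Per-plate normalisation used 0.1 % DMSO and a positive kill control. Breast cancer cell lines (20 µl suspension) were seeded into 384-well plates containing compound at 5 concentrations in 10-fold steps across a compound-specific 10,000-fold range, incubated for 72 h, and read first for CellTox Green fluorescence (485/520 nm), then for CellTiter-Glo luminescence. EC50 was fitted from the dose-response curves and censored at the top concentration.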

MDA-MB-231 [1] = test system: MDA-MB-231
Summary of the method: as §1

CAL-85-1 [2] = test system: CAL-85-1
Summary of the method: as §1

MCF-10A = test system: MCF-10A
Summary of the method: as §1

BT-549 [3] = test system: BT-549
Summary of the method: as §1

HCC1143 [4] = test system: HCC1143
Summary of the method: as §1

CAL-120 [5] = test system: CAL-120
Summary of the method: as §1

Hs578T [6] = test system: Hs578T
Summary of the method: as §1

MDA-MB-231 [7] = test system: MDA-MB-231; remark: listed apart in the source
Procedure: (§2)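 Drug sensitivity and resistance testing (DSRT) of breast cancer cell lines in 384-well plates, 5 concentrations in 10-fold dilutions over a compound-specific 10,000-fold range. After 72 h, cytotoxicity was read by CellTox Green fluorescence and viability by CellTiter-Glo luminescence (multiplexed), normalised to DMSO and benzethonium chloride controls. EC50 is the inflection point of the fitted dose-response curve (bottom asymptote free, so it can be relative for partial curves) and is censored at the highest tested concentration. Rows with DSS 0 (no meaningful response) were excluded.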

CAL-85-1 [8] = test system: CAL-85-1; remark: listed apart in the source
Procedure: as §2

BT-549 [9] = test system: BT-549; remark: listed apart in the source
Procedure: as §2

MDA-MB-468 = test system: MDA-MB-468
Procedure: as §2

MDA-MB-436 [10] = test system: MDA-MB-436
Summary of the method: as §1

HDQ-P1 [11] = test system: HDQ-P1
Summary of the method: as §1

DU-4475 [12] = test system: DU-4475
Summary of the method: as §1

HCC1937 [13] = test system: HCC1937
Summary of the method: as §1

MDA-MB-453 [14] = test system: MDA-MB-453
Summary of the method: as §1

MFM-223 [15] = test system: MFM-223
Summary of the method: as §1

CAL-120 [16] = test system: CAL-120; remark: listed apart in the source
Procedure: as §2

HCC1937 [17] = test system: HCC1937; remark: listed apart in the source
Procedure: as §2

CAL-148 [18] = test system: CAL-148
Summary of the method: (§3)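 After 72 h on 384-well plates pre-loaded with compound in 5 µl medium, breast cancer cell lines seeded in 20 µl were assayed for viability with 2.5 µl CellTiter-Blue at 37 °C for 2 h, read at 560/590 nm. Each plate was quality-checked by Z'-factor and normalised to vehicle and a positive kill control. EC50 comes from the fitted percent-inhibition dose-response curve, censored at the top concentration, and rows scoring zero for drug sensitivity were left out.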

CAL-51 [19] = test system: CAL-51
Summary of the method: as §3

HDQ-P1 [20] = test system: HDQ-P1; remark: listed apart in the source
Summary of the method: as §3

MDA-MB-453 [21] = test system: MDA-MB-453; remark: listed apart in the source
Summary of the method: as §3

BT-549 [22] = test system: BT-549; remark: listed apart in the source
Summary of the method: as §3

HCC1599 [23] = test system: HCC1599
Summary of the method: as §3

Hs578T [24] = test system: Hs578T; remark: listed apart in the source
Summary of the method: as §3

MFM-223 [25] = test system: MFM-223; remark: listed apart in the source
Summary of the method: as §3

MFM-223 [26] = test system: MFM-223; remark: listed apart in the source
Procedure: as §2

DU-4475 [27] = test system: DU-4475; remark: listed apart in the source
Summary of the method: as §3

MDA-MB-436 [28] = test system: MDA-MB-436; remark: listed apart in the source
Summary of the method: as §3

HCC1143 [29] = test system: HCC1143; remark: listed apart in the source
Summary of the method: as §3

CAL-148 [30] = test system: CAL-148; remark: listed apart in the source
Procedure: as §2

CAL-148 [31] = test system: CAL-148; remark: listed apart in the source
Summary of the method: as §1

HCC1599 [32] = test system: HCC1599; remark: listed apart in the source
Summary of the method: as §1

BT-474 = test system: BT-474
Procedure: as §2

HCC1143 [33] = test system: HCC1143; remark: listed apart in the source
Procedure: as §2

CAL-51 [34] = test system: CAL-51; remark: listed apart in the source
Procedure: as §2

MDA-MB-453 [35] = test system: MDA-MB-453; remark: listed apart in the source
Procedure: as §2

N#CCNC(=O)c1ccc(-c2ccnc(Nc3ccc(N4CCOCC4)cc3)n2)cc1 [Momelotinib]
EC50, CellTiter-Glo (SK-BR-3): 2900 nM | EC50, CellTiter-Glo (MDA-MB-231 [1]): 5190 nM | EC50, CellTiter-Glo (CAL-85-1 [2]): 2160 nM | EC50, CellTiter-Glo (MCF-10A): 6590 nM | EC50, CellTiter-Glo (BT-549 [3]): 2110 nM | EC50, CellTiter-Glo (HCC1143 [4]): 1570 nM | EC50, CellTiter-Glo (CAL-120 [5]): 1380 nM | EC50, CellTiter-Glo (Hs578T [6]): 2240 nM | EC50, CellTox Green (MDA-MB-231 [7]): 77.2 nM | EC50, CellTox Green (CAL-85-1 [8]): 1630 nM | EC50, CellTox Green (BT-549 [9]): 3300 nM | EC50, CellTox Green (MDA-MB-468): 5270 nM

Cc1ccc(C(=O)Nc2ccc(CN3CCN(C)CC3)c(C(F)(F)F)c2)cc1C#Cc1cnc2cccnn12 [Ponatinib]
EC50, CellTiter-Glo (MDA-MB-436 [10]): 265 nM | EC50, CellTiter-Glo (MDA-MB-231 [1]): 382 nM | EC50, CellTiter-Glo (CAL-85-1 [2]): > 1000 nM | EC50, CellTiter-Glo (MCF-10A): 643 nM | EC50, CellTiter-Glo (BT-549 [3]): 689 nM | EC50, CellTiter-Glo (CAL-120 [5]): 162 nM | EC50, CellTiter-Glo (HDQ-P1 [11]): 220 nM | EC50, CellTiter-Glo (DU-4475 [12]): 588 nM | EC50, CellTiter-Glo (HCC1937 [13]): > 1000 nM | EC50, CellTiter-Glo (MDA-MB-453 [14]): > 1000 nM | EC50, CellTiter-Glo (MFM-223 [15]): 31.8 nM | EC50, CellTox Green (MDA-MB-231 [7]): 231 nM | EC50, CellTox Green (CAL-120 [16]): 482 nM | EC50, CellTox Green (HCC1937 [17]): 387 nM | EC50, CellTiter-Blue viability (CAL-148 [18]): 295 nM | EC50, CellTiter-Blue viability (CAL-51 [19]): 869 nM | EC50, CellTiter-Blue viability (HDQ-P1 [20]): 307 nM | EC50, CellTiter-Blue viability (MDA-MB-453 [21]): 282 nM | EC50, CellTiter-Blue viability (BT-549 [22]): 893 nM | EC50, CellTiter-Blue viability (HCC1599 [23]): 217 nM | EC50, CellTiter-Blue viability (Hs578T [24]): > 1000 nM | EC50, CellTiter-Blue viability (MFM-223 [25]): 8.43 nM

Cn1c(Nc2ccc(C(F)(F)F)cc2)nc2cc(Oc3ccnc(-c4ncc(C(F)(F)F)[nH]4)c3)ccc21 [RAF265]
EC50, CellTiter-Glo (MDA-MB-436 [10]): 137 nM | EC50, CellTiter-Glo (CAL-85-1 [2]): 827 nM | EC50, CellTiter-Glo (BT-549 [3]): 377 nM | EC50, CellTiter-Glo (CAL-120 [5]): 97.2 nM | EC50, CellTiter-Glo (Hs578T [6]): 72.4 nM | EC50, CellTiter-Glo (HDQ-P1 [11]): 108 nM | EC50, CellTiter-Glo (DU-4475 [12]): 193 nM | EC50, CellTiter-Glo (HCC1937 [13]): 163 nM | EC50, CellTiter-Glo (MFM-223 [15]): 291 nM | EC50, CellTox Green (CAL-85-1 [8]): 139 nM | EC50, CellTox Green (BT-549 [9]): 581 nM | EC50, CellTox Green (MFM-223 [26]): 600 nM | EC50, CellTiter-Blue viability (CAL-51 [19]): 915 nM | EC50, CellTiter-Blue viability (HDQ-P1 [20]): 82.3 nM | EC50, CellTiter-Blue viability (DU-4475 [27]): 328 nM | EC50, CellTiter-Blue viability (MDA-MB-436 [28]): 30 nM | EC50, CellTiter-Blue viability (BT-549 [22]): 4.14 nM | EC50, CellTiter-Blue viability (HCC1143 [29]): 1.43 nM | EC50, CellTiter-Blue viability (Hs578T [24]): 196 nM | EC50, CellTiter-Blue viability (MFM-223 [25]): 673 nM

O=C1CCC(N2C(=O)c3ccccc3C2=O)C(=O)N1 (stereo not given) [Thalidomide]
EC50, CellTox Green (CAL-148 [30]): > 10000 nM

O=C(CCCCCCC(=O)Nc1ccc([C@H]2O[C@@H](CSc3nc(-c4ccccc4)c(-c4ccccc4)o3)C[C@@H](c3ccc(CO)cc3)O2)cc1)NO [Tubacin]
EC50, CellTiter-Glo (SK-BR-3): 8750 nM | EC50, CellTiter-Glo (CAL-148 [31]): 2900 nM | EC50, CellTiter-Glo (MDA-MB-231 [1]): 2430 nM | EC50, CellTiter-Glo (CAL-85-1 [2]): 2080 nM | EC50, CellTiter-Glo (BT-549 [3]): 7350 nM | EC50, CellTiter-Glo (HCC1599 [32]): 3820 nM | EC50, CellTiter-Glo (HCC1143 [4]): 6400 nM | EC50, CellTiter-Glo (CAL-120 [5]): 1610 nM | EC50, CellTiter-Glo (HDQ-P1 [11]): 3460 nM | EC50, CellTiter-Glo (DU-4475 [12]): 1480 nM | EC50, CellTiter-Glo (HCC1937 [13]): 4670 nM | EC50, CellTiter-Glo (MDA-MB-453 [14]): 1750 nM | EC50, CellTiter-Glo (MFM-223 [15]): 3590 nM | EC50, CellTox Green (BT-474): 1880 nM | EC50, CellTox Green (MDA-MB-231 [7]): 2010 nM | EC50, CellTox Green (CAL-85-1 [8]): 3160 nM | EC50, CellTox Green (HCC1143 [33]): 6850 nM | EC50, CellTox Green (CAL-51 [34]): 2070 nM | EC50, CellTox Green (HCC1937 [17]): 124 nM | EC50, CellTox Green (MDA-MB-453 [35]): 8370 nM
